Paper PMC6332320, “Factors Influencing Oral Bioavailability of Thai Mango Seed Kernel Extract and Its Key Phenolic Principles” (Molecules, 2015)
Where two headings read alike, the source gives them in different places.

Assay: In vivo oral pharmacokinetic study in SD rats
Parameters: species or system Sprague-Dawley rats
Conditions: for MRT last / half-life / k el / Cmax / Tmax / AUC(0-t): Sprague-Dawley, rat, blood, po; for k el: read-out: Ke (converted); for AUC(0-t): read-out: AUC0–24h
Protocol: SD rats (five rats/group) were individually housed in stainless-steel metabolic cages, which allowed for the separation and collection of urine and feces. The rats were fasted overnight with ad libitum access to water prior to the day of the experiment. After a rat was anesthetized with isoflurane gas, the prepared suspension of test compound in an oral suspension vehicle was administered to the animals via oral gavage at a dose of 20 mg/kg for each compound in the mixture of MG and PGG or at 143 mg/kg MSKE, which is equivalent to approximate doses of 20 mg/kg PGG and 0.13 mg/kg MG. Subsequently, the rats’ tails were snipped near the tip to collect blood samples (approximately 50 µL), which were collected in heparinized tubes at 0, 0.50, 1, 2, 4, 6, 8 and 24 h. To investigate the excretion of phenolic compounds, urine and feces were collected between 0–24 h post-administration into tubes containing penicillin G (200 mg) and dry tubes, respectively, which were pre-weighted before use. After completing the pharmacokinetic study, the urine volume and dry feces weights were recorded, and all samples were stored at −80 °C until analysis.
The blood and urine samples were prepared according to our previously reported methods. The fecal samples were prepared by adding 30 mL methanol to the sample, and the mixture was then vortexed and sonicated for 30 min to obtain the fecal lysates, which were extracted via the same method.
The pharmacokinetic parameters of MG and PGG were calculated based on the non-compartmental method using WinNonlin 3.3 (Pharsight Corporation, Mountain View, CA, USA). The total mass of analytes was calculated according to the following equations (Equations (3)–(6)): The mass recovery (%) = (total mass in blood + total mass in urine + total mass in feces)/initial mass of analyte (3) Total mass in blood = C24h in blood × rat blood volume (70 mL/kg of body weight) (4) Total mass in urine = C0–24h in urine × volume of urine (0–24 h) (5) Total mass in feces = C0–24h in fecal lysate × volume of fecal lysate (30 mL) (6) where C24h in the blood is the concentration of analyte found in the blood sample at 24 h, and C0–24h in the urine and C0–24h in the fecal lysate are the concentrations of the analyte found in the urine and fecal samples, respectively, between 0 and 24 h.
A Waters UPLC system coupled with an ESI triple quadrupole mass spectrometer (QTRAP5500, AB Sciex, Foster City, CA, USA) was used to analyze MG and PGG in biological samples. The LC–MS/MS conditions were previously published. The UPLC conditions were Kinetex C18 column at 50 mm × 2.1 mm I.D. and 5 µm particle size (Phenomenex Inc.); mobile phase A at 0.1% formic acid in deionized water; mobile phase B at 100% acetonitrile; gradient at 0.0–0.5 min (0% B), 0.5–1.0 min (0%–30% B), 1.0–2.0 min (30%–90% B), 2.0–3.0 min (90% B), 3.0–3.5 min (90%–0% B) and 3.5–5.0 min (0% B); flow rate at 0.5 mL/min; column temperature at 40 °C; sample temperature at 20 °C; and injection volume at 10 µL. The mass spectrometer employed an MRM method in the negative ion mode. The instrument-dependent parameters for obtaining the mass spectra were set as follows: ionspray voltage at −4.5 kV; ion source temperature at 550 °C; gas 1 at 60 psi; gas 2 at 60 psi; and curtain gas at 20 psi. The unit mass resolution was set in both mass-resolving quadruples Q1 and Q3. Because of the absence of authentic standard for the glucuronide and sulfate metabolites of MG and PGG, qualification of the metabolites in the biological samples was accomplished using the compound-dependent parameters for MG and PGG.

[1] = MSKE 143 mg/kg (20 mg/kg PGG and 0.13 mg/kg MG)
[2] = mixture of MG and PGG 20 mg/kg each
[3] = mixture 20 mg/kg, p.o. vs i.p. (ref 14)
[4] = p.o., MSKE 143 mg/kg (20 mg/kg PGG and 0.13 mg/kg MG)
[5] = p.o., mixture of MG and PGG 20 mg/kg each

Which results are given for COC(=O)c1cc(O)c(O)c(O)c1 [MG, methyl gallate]?
MRT last [1]: 11.1 ± 0.6 h; half-life [1]: 65.2 ± 49.4 h; k el [1]: 4.17e-06 s⁻¹; MRT last [2]: 8.69 ± 1.57 h; half-life [2]: 24.8 ± 15.7 h; k el [2]: 1e-05 s⁻¹; Cmax [1]: 240 ± 60 nM; Tmax [1]: 0.5 h; AUC(0-t) [1]: 3.57 ± 0.79 µM·h; Cmax [2]: 1130 ± 1060 nM; Tmax [2]: 2.3 ± 1.64 h; AUC(0-t) [2]: 6.47 ± 0.75 µM·h; AUC0–24h, oral lower than intraperitoneal [3]: ~17 folds; Cmax, oral lower than intraperitoneal [3]: ~31 folds; Tmax, oral compared with intraperitoneal (slower absorption) [3]: approximately 3 folds; Vd, oral higher than intraperitoneal [3]: approximately 19 folds; t1/2, oral longer than intraperitoneal [3]: ~1.4 folds; CL [4]: 35.2 ± 21 mL/min/kg; Vd [4]: 135.39 ± 21.94 L/kg; CL [5]: 5534.3 ± 1662 mL/min/kg; time of second maximum peak of blood concentration (double-peak profile) [5]: 4 h
